Experimental findings from US20240269306A1, “B7H4-TARGETED ANTIBODY-DRUG CONJUGATES AND METHODS OF USE THEREOF” (Mersana Therapeutics, Inc., priority 2021, published 2024) are described below.

Positions count from the first letter of the chain named. Several values for one entry are separate records, joined by “and”; a condition that tells them apart may be missing. Identical values can stand only once.

Experiment [1] has as its system STING pathway in THP1-Dual cells co-cultured with MX-1 cancer cells. Nature of the experiment: STING activation, cancer cell/THP1-IRF3-Luciferase reporter cell co-culture assay (Example 36). The settings on record: 24 hours, concentrations based on payload, read-out: THP1-Dual cells/MX-1 co-cultures EC50. (In a reporter assay the amount or activity of a reporter protein is the signal.)
Procedure: The induction of the STING pathway in immune cells by B7-H4-targeted STING agonist conjugates was evaluated by a cancer cell/THP1-IRF3-Luciferase reporter cell co-culture assay. MX-1 cells were seeded in 96-well CellBind surface tissue culture plates (17,000 cells/well) and allowed to attach for 4 hours in RPMI-1640 medium with 10% FBS and 1% penicillin/streptomycin. […] THP1-Dual™ Cells (InvivoGen) (50,000 cells) were then added to each well and the incubation continued for 24 hours at 37° C. in a humidified atmosphere of 5% CO2. Cell culture supernatants (20 μL) from each incubated sample was added to resuspended QUANTI-Luc (InvivoGen) (50 μL) and the luminescent signal was measured immediately using a SpectraMax M5 plate reader (Molecular Devices). The EC50 values were determined from the dose response curve.

Experiment [2] deals with untransfected HEK-293 cells. The experiment in a line: Cell surface binding by FACS, untransfected HEK-293 cells (Example 32). The note with it: mean of two replicate experiments. In general terms: A flow cytometer gives signals particle by particle.
Procedure: (§2) MX-1 cells were grown in DMEM:F12K (Life Technologies) with 10% FBS (Life Technologies) and 1% penicillin/streptomycin (Life Technologies). […] For staining, cells were detached by treatment with Accutase cell detachment solution (Innovative Cell Technologies). The detached cells were triturated in media, and plated in 96 well U-bottom plates, at a density of 50,000 cells in medium (75 μL). […] The cells were washed with ice cold PBS (3×), pelleted at 1,000×RCF between each wash step, and resuspended in RPMI-1640 with 2% goat serum (100 μL) and a secondary fluorescently labeled antibody, Alexa Fluor® 647-labelled goat anti-human IgG (5 μg/mL, Life Technologies) for 1 hour on ice. The cells were washed with ice cold PBS (3×) and resuspended in ice cold PBS with 1% paraformaldehyde (100 μL). The fluorescence per cell was determined by analyzing 5,000 cells for each treatment on the flow cytometer. The median fluorescence value for each treatment was plotted, and EC50 values were calculated with Graphpad Prism software by four-parameter curve fitting.
(§3) HEK-293-B7-H4 cells were grown in EMEM (ATCC), 10% FBS, 1% penicillin/streptomycin, and 3 μg/ml puromycin (Life Technologies) and untransfected HEK-293 cells were grown in EMEM, 10% FBS, 1% penicillin/streptomycin. […] Results are mean values for two replicate experiments for each test article.
The test system of experiment [3] is HEK-293 cells stably transfected with human B7-H4. The experiment in a line: Cell surface binding by FACS, HEK-293-B7-H4 cells (Example 32). The note with it: mean of two replicate experiments.
Procedure: as §2, §3
For experiment [4], the system named is HEK-293-WT cells cocultured with CTV-labeled CD3+ T cells. The experiment in a line: T-cell suppression coculture assay with HEK-293-WT cells (Example 27). Format: cell-based, human. The note with it: HEK-293-WT coculture, antibody 50 nM, 4 day. On the procedure:
(§1) Next day, the media was removed and replaced with T cell media (Iscove's Modified Dulbecco's Medium with 10% FBS and 5% penicillin/streptomycin). […] Frozen human PBMCs (2.5×10^7 cells) were thawed and enriched for CD3+ T cells using Easy Step™ human T cell isolation kit (StemCell Technologies). CD3+ T cells were labeled with CellTrace™ Violet cell proliferation kit (CTV; ThermoFisher Scientific) and adjusted to 2×10^6 cells/mL. CTV-labeled T cells (1×10^5) were added to test article-treated HEK-293-WT or HEK-293-B7-H4 cells, stimulated with Immunocult™ Human CD3/CD28 T Cell Activator (StemCell Technologies), and incubated at 37° C. in 5% CO2. After 4 day of coculture of HEK-293-WT or HEK-293-B7-H4 with CTV-labeled T cells, T cell proliferation was assessed by the dilution of CTV-labeled T cells using flow cytometry. Cocultured cells (CTV-labeled T cells and HEK-293-WT/HEK-293-B7-H4 cells) from each group were transferred to a U-bottom 96-well plate, washed with PBS, stained with live/dead Fixable Aqua dead cell staining dye (ThermoFisher Scientific), and then additionally stained with fluorophore conjugated target specific or isotype control antibodies (FITC anti-human CD45, PE/Cy7 anti-human CD4, PE anti-human CD8). Cells were fixed and surface expression of the proteins of interest was determined by flow cytometry analysis on a MACSQuant flow cytometer. Data analysis was performed by FlowJo software using the following hierarchical flow: 1) single gate, 2) live cells, 3) CD45+ cells, and 4) diluted CTV (compared to unstimulated T cells). Percentage of proliferating CD4+ or CD8+ T cell were calculated using CD4+ combined with diluted CTV and CD8+ combined with diluted CTV, respectively. Data represent the mean (±standard deviation) of triplicate wells for each test article. Table 6 gives the population (%) of live cells, CD45+, proliferating CD4+ T cells, and proliferating CD8+ T cells for each condition.

For experiment [5], the system named is HEK-293-B7-H4 cells cocultured with CTV-labeled CD3+ T cells. The experiment in a line: T-cell suppression coculture assay with HEK-293-B7-H4 cells (Example 27). The class given is cell-based, human. The settings on record: HEK-293-B7-H4 coculture; antibody 50 nM; 4 day; mean ± SD; two lines of values. As for the experimental part:
as §1

The next experiment deals with monkey B7-H4. The experiment in a line: ELISA binding to monkey B7-H4 (Example 30). The settings on record: mean of two studies.
The target of experiment [6] is T1, human B7-H4 (Homo sapiens, UniProt Q7Z7D3).
T1 construct: purchased R&D Systems 6576-B7-050
T1 sequence (Q7Z7D3 25-282): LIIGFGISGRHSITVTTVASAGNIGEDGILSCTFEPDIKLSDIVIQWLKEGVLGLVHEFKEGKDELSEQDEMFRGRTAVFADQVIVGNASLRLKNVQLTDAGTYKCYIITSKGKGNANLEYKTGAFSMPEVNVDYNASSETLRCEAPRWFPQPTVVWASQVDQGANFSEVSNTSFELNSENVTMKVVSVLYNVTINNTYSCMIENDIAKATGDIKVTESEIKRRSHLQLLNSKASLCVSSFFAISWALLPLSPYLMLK
Nature of the experiment: ELISA binding of XMT-1603 and XMT-1604 cytotoxic drug conjugates to human B7-H4 protein (Example 29). The note with it: Table 8. A general note: ELISA stands for enzyme-linked immunosorbent assay.
Procedure: (§4) Recombinant human B7-H4 protein (R&D Systems #6576-B7-050) was coated onto the surface of each well of a 96-well plate by incubation with the peptide (1 μg/mL in PBS), overnight at 4° C. The wells were then blocked by incubation with BSA (5% in PBS, containing 0.1% Tween 20 (PBST)) for 1 hour at room temperature. […] The unbound test article was removed by washing with PBST (3×). A secondary anti-human IgG conjugated to HRP (0.16 μg/mL in PBST) was incubated in each well for 1 hour. The unbound secondary antibody was removed by washing with PBST (3×). The HRP substrate, TMB, was added to each well and incubated until a blue color was visible. The reaction was quenched by the addition of sulfuric acid (0.2 N, 100 μL). […] The values were plotted using GraphPad Prism software. EC50 values were determined by four-parameter curve fitting.

Experiment [7] has as its system MX-1 cells. The experiment in a line: Cell surface binding by FACS, MX-1 cells (Example 32). The note with it: mean of two replicate experiments. On the set-up: species or system human.
Procedure: as §2, §3
In a further experiment the target is T2, mouse B7-H4 (Mus musculus, UniProt Q7TSP5).
T2 construct: purchased Creative Biomart VTCN1-1519R
T2 sequence (Q7TSP5 25-257): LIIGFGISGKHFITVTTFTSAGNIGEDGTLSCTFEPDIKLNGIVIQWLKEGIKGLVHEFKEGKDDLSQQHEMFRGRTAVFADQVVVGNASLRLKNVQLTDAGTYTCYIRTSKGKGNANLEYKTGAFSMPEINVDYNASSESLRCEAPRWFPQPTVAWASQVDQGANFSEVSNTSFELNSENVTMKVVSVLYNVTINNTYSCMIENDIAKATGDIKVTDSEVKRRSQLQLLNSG
The experiment in a line: ELISA binding to mouse B7-H4 (Example 30). The settings on record: mean of two studies.

The target of experiment [8] is T1, human B7-H4. The experiment in a line: ELISA binding of STING agonist conjugates to recombinant human B7-H4 protein (Example 34). The note with it: Table 13.
Procedure: as §4
The target in experiment [9] is T1, human B7-H4. The experiment in a line: ELISA binding to human B7-H4 (Example 30). The settings on record: mean of two studies.
Procedure: as §4
(§5) Proteins used in these studies were: human B7-H4 (R&D Systems; 6576-B7-050), monkey B7-H4 (Creative Biomart; VTCN1-1519R), rat (R&D Systems 10085-B7), and mouse (Creative Biomart; VTCN1-1519R).
The subject of experiment [10] is MX-1 cells. Nature of the experiment: Cell surface binding of STING agonist conjugates by FACS, MX-1 cells (Example 35). More on the design: species or system human. The note with it: Table 14.
Procedure: as §2
The next experiment has as its target T3, rat B7-H4 (Rattus norvegicus, UniProt Q501W4).
T3 construct: purchased R&D Systems 10085-B7
T3 sequence (Q501W4 25-257): T2 sequence (Q7TSP5 25-257) with R109H, Q228E
Nature of the experiment: ELISA binding to rat B7-H4 (Example 30). The settings on record: mean of two studies.

Experiment [11] concerns the target T1, human B7-H4. The experiment in a line: ELISA binding of variant B7-H4 cytotoxic drug conjugates to B7-H4 protein (Example 28). The note with it: Table 7.
Procedure: as §4

Procedure for monkey B7-H4: as §4, §5
Procedure for mouse B7-H4: as §4, §5
Procedure for rat B7-H4: as §4, §5

For the compound `Cc1ccc2c(=O)c3cccc(CC(=O)O)c3oc2c1C` [STING agonist], the EC50 in [1] was greater than 0.1 µM.

Regarding Palivizumab, the EC50 (in experiment [2]; in experiment [3]; at monkey B7-H4; in the experiment with human B7-H4 [6]; in the experiment with MX-1 cells [7]; with mouse B7-H4) was greater than 0.1 µM each time. The EC50 with human B7-H4 [8] was greater than 0.1 µM; with human B7-H4 [9], greater than 0.1 µM; in the experiment on MX-1 cells [10] it was greater than 0.2 µM; in the experiment with rat B7-H4, greater than 0.1 µM; with human B7-H4 [11], greater than 0.1 µM. The “% Population Live cells (gated on single)” value in experiment [4] (mean ± SD of triplicate wells, two unexplained lines of values per population) is 78.2 ± 0.4% and 85.6 ± 11.2%; in [5], 80.1 ± 2.0% and 95.5 ± 2.8%. The “% Population CD45+ (gated on live cells)” value was 69.0 ± 5.1% and 43.0 ± 11.0% in experiment [4] (mean ± SD, two lines of values); 48.3 ± 4.1% and 50.1 ± 3.7% in [5]. For the same compound, the “% Population Proliferating CD4+ (gated on single/live cells/CD45+)” value in experiment [4] (mean ± SD, two lines of values) was 32.9 ± 2.6% and 22.4 ± 2.3%. The “% Population Proliferating CD8+ (gated on single/live cells/CD45+)” value in [4] (mean ± SD, two lines of values) was 9.5 ± 1.6% and 3.5 ± 0.8%; in experiment [5], 3.4 ± 0.5% and 1.1 ± 0.6%.
